Square brackets hold non-standard residues; d marks the D form. Ends that are not written are not given here. Peptide text beside a SMILES is read from it. * marks the point of attachment. NMeF = CN[C@@H](Cc1ccccc1)C(=O)O; X3 = C[C@@H](C(=O)*)[N+](C)(C)C; NMeL = CN[C@@H](CC(C)C)C(=O)O; Sar = CNCC(=O)O
Columns and labels:
[1] = Enzymatic susceptibility to chymotrypsin (RP-HPLC, mass spectral analysis); format: in vitro ADME; settings: chymotrypsin; overnight enzyme exposure (16 hours), room temperature, pH 7.8; read-out: cleavage by chymotrypsin
Experimental: (§1) The stability of N-permethylated compounds to proteolysis was examined for two permethylated sequences, AlaGlyGlyPheLeu-NH2 (SEQ ID NO:37) and ArgGlyGlyPheLeu-NH2 (SEQ ID NO:38) with their non-permethylated equivalents used as controls. Treatment of these found compounds by trypsin and chymotrypsin was monitored by RP-HPLC and mass spectral analysis. Rapid cleavage of AGGFL-NH2 (SEQ ID NO:37) by chymotrypsin and RGGFL-NH2 (SEQ ID N0:38) by trypsin was observed (<1 hour), whereas less than 1 percent cleavage of the equivalent permethylated peptides was seen following overnight enzyme exposure.
(§2) The assays were performed in 1 ml 0.1M NH4 HCO3, pH 7.8, at room temperature for 16 hours at a peptide concentration of 1.0 mg/ml. Enzyme to peptide concentration was 1:50.

trypsin = assay: Enzymatic susceptibility to trypsin (RP-HPLC, mass spectral analysis); format: in vitro ADME; settings: peptide 1.0 mg/ml, enzyme to peptide 1:50, 0.1M NH4HCO3 pH 7.8, room temperature
Experimental: as §1, §2

[2] = tested on: human red blood cells (RBC's); assay: Hemolytic activity on human red blood cells; format: cell-based; settings: 0.25 percent RBC suspension, one hour at 37° C.
Experimental: Hemolytic activities of the peptides were determined using human red blood cells (RBC's). The assays were carried out in 96-well tissue culture plates against a 0.25 percent RBC suspension as described in Blondelie et al., Biochim. Biophys. Acta, 1202:331-336 (1993), incorporated herein by reference. Briefly, individual permethylated peptides or peptide mixtures were added to the RBC solution at concentrations derived from serial two-fold dilutions varying from […]. Following a one hour incubation at 37° C., the plates were centrifuged at 2800 rpm for 5 minutes. The supernatant was separated from the pellet and its OD measured at 414 nm. Triton (1 percent) and PBS were used as 100 percent and 0 percent hemolysis controls, respectively.

[3] = tested on: Staphylococcus aureus (ATCC 29213); assay: microbe, parasite or virus in culture; settings: for S. aureus IC50: Example 8, individual peptides; for S. aureus MIC: no change in OD620 between time 0 and 21 hours
Experimental: Concentrations of those 5X permethylated peptide mixtures that inhibited cellular growth by 50 percent (IC50) values were determined.
This culture was reinoculated and incubated at 37° C. to reach the exponential phase of bacterial growth; i.e., a final bacterial suspension containing about 10^5 to 5×10^5 colony-forming units (CFU)/ml. The concentration of cells was established by plating 100 μl of different dilutions of the culture solution (e.g., 10^-2, 10^-3 and 10^-4) onto solid agar plates. Following an overnight (about 18 hours) incubation at 37° C., the CFU thus formed were counted on each agar plate.
96-Well tissue culture plates were utilized, with eight wells per plate containing only medium as control blanks, whereas eight other wells contained medium plus cells as a positive growth control. These controls were used to detect possible medium contamination and to provide a measure of uninhibited growth of the microorganisms.
For determination of IC50 values (concentrations necessary to inhibit 50 percent growth of bacteria), peralkylated oligopeptide sets were added to the bacterial suspension at concentrations noted before. The plates were incubated overnight (about 18 hours) at 37° C., and the optical density (OD) determined at 620 nm after different times of incubation. IC50 values were then determined from the OD data.
Assays using S. aureus were carried out as described before. […] To initiate the exponential phase of bacterial growth prior to the assay, a sample of bacteria grown overnight (about 18 hours) at 37° C. in cation-adjusted Mueller Hinton broth (CAMM, for E. coli and S. aureus--Becton Dickinson Microbiology Systems, Cockeysville, Md.), or Brain Heart Infusion broth (BHI, for S. sanguis), was reinoculated in a 2X broth and incubated at 37° C. MRSA was grown at 35° C. in cation-adjusted MH broth in a similar manner. Prior to the assay, two colonies of newly grown C. albicans culture were inoculated in 5ml of phosphate buffer saline (PBS-35mM phosphate buffer, 0.15M NaCl-pH 7.0), and diluted in yeast medium broth. The bacteria and yeast suspensions were adjusted turbidimetrically so that a final concentration of 10^5 to 5×10^5 colony-forming units (CFU)/ml was used in all assays.
The plates were then incubated overnight at 37° C. […] The concentration necessary to inhibit 50 percent bacterial growth (IC50) was then calculated using the software program […] (ISI, San Diego, Calif.). […] In a similar manner, the plates containing C. albicans suspension were incubated for 48 hours at 30° C.

[4] = tested on: Streptococcus sangus ATCC 10566; assay: Assays against S. sanguis (growth inhibition); format: cell-based, Streptococcus sanguis; settings: Table 6
Experimental: The permethylated amino acid and peptides were screened against S. aureus and Streptoccus sanguis, as described below, and IC50 and MIC (minimum inhibitory concentration; minimum concentration needed to inhibit about 100 percent bacterial growth) values were determined. […]
(§3) Assays using S. aureus were carried out as described before. Methicillin-resistant Staphylococcus aureus (MRSA) ATCC 33591, Streptococcus sangus ATCC 10566, Escherichia coli ATCC 25922 and Candida albicans ATCC 10231 were used in the bioassays (ATCC, Rockville, Md.). To initiate the exponential phase of bacterial growth prior to the assay, a sample of bacteria grown overnight (about 18 hours) at 37° C. in cation-adjusted Mueller Hinton broth (CAMM, for E. coli and S. aureus--Becton Dickinson Microbiology Systems, Cockeysville, Md.), or Brain Heart Infusion broth (BHI, for S. sanguis), was reinoculated in a 2X broth and incubated at 37° C. MRSA was grown at 35° C. in cation-adjusted MH broth in a similar manner. Prior to the assay, two colonies of newly grown C. albicans culture were inoculated in 5ml of phosphate buffer saline (PBS-35mM phosphate buffer, 0.15M NaCl-pH 7.0), and diluted in yeast medium broth. The bacteria and yeast suspensions were adjusted turbidimetrically so that a final concentration of 10^5 to 5×10^5 colony-forming units (CFU)/ml was used in all assays.
(§4) The assays were carried out in 96-well tissue culture plates (Costar, Pleasanton, Calif.) as described in Blondelie et al., Biochemistry, 31:12688-12694 (1992), incorporated herein by reference. In brief, the bacterial suspension was added to an equal volume of the mixture of permeythylated compounds diluted in H2 O at concentrations derived from serial two-fold dilutions varying from 2500 μg/ml to 1 μg/ml. The plates were then incubated overnight at 37° C. The relative percent growth found for each compound (or mixture of compounds) was then determined by the optical density at 620 nm (OD620) using a Titertek Multiskan Plus apparatus (Flow Laboratories, McLean, Va.). The concentration necessary to inhibit 50 percent bacterial growth (IC50) was then calculated using the software program […] (ISI, San Diego, Calif.). […] In a similar manner, the plates containing C. albicans suspension were incubated for 48 hours at 30° C.

[5] = tested on: Methicillin-resistant Staphylococcus aureus (MRSA) ATCC 33591; assay: Antimicrobial activity against MRSA (growth inhibition); format: cell-based; settings: for MRSA MIC: no change in OD620 between time 0 and 21 hours
Experimental: as §3, §4

[6] = Merck Index, 10th ed.; cited from earlier work
chymotrypsin = assay: Enzymatic susceptibility to chymotrypsin (RP-HPLC, mass spectral analysis); format: in vitro ADME; settings: peptide 1.0 mg/ml, enzyme to peptide 1:50, 0.1M NH4HCO3 pH 7.8, room temperature
Experimental: as §1, §2

| Compound | % hemolysis at 350 μg/ml [2] [%] | S. aureus IC50 [3] [mg/L] | S. aureus MIC [3] [mg/L] | S. sanguis IC50 [4] [mg/L] | S. sanguis MIC [4] [mg/L] | MRSA IC50 [5] [mg/L] | MRSA MIC [5] [mg/L] | further results |
| --- | --- | --- | --- | --- | --- | --- | --- | --- |
| CNC(=O)[C@H](CC(C)C)N(C)C(=O)[C@H](Cc1ccccc1)N(C)C(=O)CN(C)C(=O)CN(C)C(=O)[C@H](C)[N+](C)(C)C [PerA-AGGFL] (X3-[Sar][Sar][NMeF][NMeL]-NHMe) | – | – | – | – | – | – | – | metabolised at 16 h, 1 mg/ml [1]: < 1% |
| ArgGlyGlyPheLeu-NH2 (RGGFL-NH2) [non-permethylated equivalent used as control] | – | – | – | – | – | – | – | time in which cleavage by trypsin was observed (trypsin): < 1 h |
| PerM-PhePhePhePheHisPhe (FFFFHF; also: permethylated) [PerM-FFFFHF] | 3 | 11 | 15 to 21 | 19 | 30 to 40 | 18 | 21 to 42 | – |
| PerM-LeuPhePhePhePheHis (LFFFFH; also: permethylated) [PerM-LFFFFH] | 3 | 13 | 21 to 42 | 22 | 30 to 40 | 16 | 21 to 42 | – |
| CC(=O)[C@H]1CC[C@H]2[C@@H]3CCC4=CC(=O)CC[C@]4(C)[C@H]3CC[C@]12C [progesterone] | – | – | – | – | – | – | – | solubility in water [6]: insoluble in water |
| PerM-LeuPheIlePhePheHis (LFIFFH; also: permethylated) [PerM-LFIFFH] | 1 | 12 | 21 to 31 | 19 | 30 to 40 | 20 | 25 to 42 | – |
| C[C@]12CC[C@H]3[C@@H](CCC4=CC(=O)CC[C@@]43C)[C@@H]1CC[C@@H]2O [testosterone] | – | – | – | – | – | – | – | solubility in water [6]: insoluble in water |
| AlaGlyGlyPheLeu-NH2 (AGGFL-NH2) [non-permethylated equivalent used as control, reference compound] | – | – | – | – | – | – | – | time in which cleavage by chymotrypsin was observed (chymotrypsin): < 1 h |

— patent publication US5480971A, “Peralkylated oligopeptide mixtures” (Houghten Pharmaceuticals, Inc., priority 1994, dated 1996)
